From paper PMC8273887 (Journal of Medicinal Chemistry, 2021)
“Also recorded” adds a separate entry of the source. Blank lines part the entries; values can stand above or below the substance they belong to. Bridge positions count the residues as written; N and C are the ends. Ends that are not written are not given here.

Columns and labels:
[1] = Stability in simulated gastric fluid (SGF); format: in vitro ADME, porcine; conditions: SGF with pepsin, pH 1.3, 37 °C, 24 h; RP-HPLC and MS
Description: (§1) We exposed TFF3(C^57Acm) and TFF3 homodimer to simulated gastric fluid (SGF, containing pepsin, pH 1.3) and simulated intestinal fluid (SIF, containing pancreatic enzymes, pH 6.8), and monitored the mixture over 24 h by analytical RP-HPLC and MS. The N- and C-termini of TFF3 and its homodimer were readily truncated in both SGF and SIF (Figure 4A,B). In SGF, TFF3 was cleaved at Leu^6/Ser^7 followed by cleavage at Glu^54/Ala^55 (t1/2 < 5 min). In SIF, TFF3 was cleaved first at Thr^58/Phe^59 followed by cleavage at Leu^6/Ser^7, Glu^56/Cys^57, and Ala^55/Glu^56 (t1/2 < 5 min). TFF3 homodimer, in both SGF (t1/2 ∼ 40 min) and SIF (t1/2 < 5 min), was first broken down to monomeric TFF3 through simultaneous cleavage at Leu^6 and Glu^54 or Ala^55, eventually leading to the same metabolites as TFF3 (Figure 4B).
(§2) Simulated gastric fluid (SGF) was prepared by dissolving 20 mg of NaCl and 8 mg of pepsin in 70 μL of concentrated HCl (32%), and the volume was diluted to 10 mL with Milli-Q water (pH 1.3).[76],[77] Simulated intestinal fluid (SIF) was prepared by dissolving 68 mg of KH2PO4 in 500 μL of Milli-Q water followed by the addition of 800 μL of 0.2 M NaOH and 100 mg of porcine pancreatin, and the volume was adjusted to 10 mL with Milli-Q water (pH 6.8).[76],[77] Peptide stock solution (1 mM; 15 μL) was added to SGF (285 μL) or SIF (285 μL) and incubated at 37 °C. Samples (30 μL) from SGF and SIF were taken at 0, 5, 15, and 30 min and 1, 2, 4, 8, and 24 h timepoints and subsequently quenched with 30 μL of 0.2 M Na2CO3 (SGF) or 30 μL of 5% aqueous TFA (SIF). The samples were analyzed by analytical RP-HPLC (30 μL) and/or LC-MS (20 μL). The amount of peptide remaining was determined by measuring the peak area and expressing it as a % of the peak area at time 0. Peptide half-life (t1/2) was determined from the peptide degradation profiles using an exponential one-phase decay fit in Prism (version 7, GraphPad, La Jolla). LC-MS analysis was performed in a Q-Star Pulsar mass spectrometer (SCIEX, Ontario, Canada), and the raw data spectra were processed using the peptide reconstruction tool in the BioAnalyst software to identify the mass of the metabolites. The stability of the disulfide bonds was assessed through incubation of the peptides (10 μM) with 10 equiv of reduced glutathione (GSH; 100 μM) in sodium phosphate (50 mM) buffer at pH 7.2. Samples were taken at timepoints 0, 4, 8, and 24 h, quenched by adding 10% TFA, and analyzed by analytical RP-HPLC using an analytical C3 column (Agilent Zorbax SB-C3, 5 μm, 2.1 mm × 250 mm, 300 Å).

trypsin = conditions: incubated with trypsin; fragments identified
Excerpt: We then synthesized the trefoil domain (TFF3_10-50, single-chain assembly via Fmoc-SPPS) to investigate its gut stability. We acetylated the N-terminus (Gln^10) of the trefoil domain to prevent the formation of pyroglutamic acid.

[2] = Stability in simulated intestinal fluid (SIF); format: in vitro ADME; conditions: pig, simulated intestinal fluid (SIF) with porcine pancreatin, pH 6.8, 15 μL of 1 mM peptide stock in 285 μL SIF, 37 °C, samples 0 min-24 h quenched with 5% aqueous TFA, RP-HPLC/LC-MS peak area as % of time 0, exponential one-phase decay fit, read-out: t1/2 in SIF
Description: as §1, §2

pepsin = experiment: simulated gastric fluid (SGF, containing pepsin, pH 1.3); conditions: porcine, 37 °C, up to 24 h
human saliva = conditions: cited from earlier work
porcine pancreatin = experiment: simulated intestinal fluid (SIF, containing pancreatic enzymes, pH 6.8); conditions: 37 °C, up to 24 h
CXCR4 = molecular target: T1, CXCR4 (Homo sapiens, UniProt P61073); experiment: Inositol 1 phosphate (IP1) accumulation assay (HTRF) in COS-7 cells transfected with CXCR4; format: cell-based; conditions: 5 min preincubation with peptide (1 or 10 μM final), then CXCL12 10^-12 to 10^-5 M; COS-7/CXCR4; IP1 HTRF
T1 construct: expressed in transfected cells; host or cells: COS-7 (African green monkey), transient co-transfection with GαΔ6qi4myr
Excerpt: CXCR4 is a member of the G protein-coupled receptor (GPCR) family[58] and proposed as a target receptor for TFF3 to mediate wound healing.[30],[39] We therefore pharmacologically characterized TFF3(C^57Acm) and TFF3 homodimer at CXCR4. We used a chimeric Gαiq protein to switch the pathway to the Gαq signaling, which leads to the activation of the phospholipase and allows measurement of CXCR4 activation through the production of inositol 1 phosphate (IP1).[61]−[63] We measured IP1 accumulation upon stimulation with TFF3(C^57Acm) and TFF3 homodimer in fibroblast-like COS-7 cells transiently transfected with CXCR4.[58] This is a competitive immunoassay, based on the HTRF technology, where native IP1 produced by cells compete with labeled IP1 (acceptor) for binding to anti-IP1-cryptate (donor). The specific signal (i.e., Förster resonance energy transfer, FRET) is inversely proportional to the concentration of IP1 in the sample. The calculation of the fluorescence ratio eliminates possible medium interferences.[64]
COS-7 cells (fibroblast-like cells from African green monkey) were transiently co-transfected with the CXCR4 C-terminally fused to eYFP in pVitro2 vector and the untagged chimeric G protein GαΔ6qi4myr in pcDNA3.1 plasmid using Metafectene Pro according to manufacturer’s protocol. The cells were cultured in DMEM with higher glucose and supplemented with 10% FCS without any antibiotics at 37 °C and 5% CO2 in 95% humidity. Cisbio IP-One Gq assay kit was used according to previous description with minor modifications to measure activity.[80] Briefly, a standard curve was prepared in HBSS (Hanks’ balanced salt solution) with 20 mM LiCl to determine the linear range of the assay and 10 000 cells/well were cultured overnight in a 384-well flat white plate (Greiner Bio-one GmbH, Frickenhausen, Germany). TFF3 and its homodimer as well as CXCL12 were diluted in HBSS containing 20 mM LiCl. Stimulation was carried out for 1 h in triplicate at 37 °C. Subsequently, 3 μL of IP1-d2 and 3 μL of Ab-cryptate in lysis buffer were added to the wells and incubated on a tumbler for 60 min at 25 °C. Fluorescence was then measured at 620 and 665 nm and the HTRF (homogeneous time-resolved fluorescence) ratio (665/620 nm) was calculated. Data analysis was performed with Prism (version 7, GraphPad, La Jolla). Tested compounds were normalized to CXCL12 wild type, with the highest HTRF ratio set to 0% and the lowest HTRF ratio set to 100% response. […] The final concentration range of 10^–12 to 10^–5 M to CXCL12 and 1 or 10 μM to TFF3(C^57Acm) and TFF3 homodimer was achieved by adding the compounds from a threefold concentrated stock solution.

[3] = Stability of disulfide bonds with reduced glutathione (GSH); format: physicochemical; conditions: peptide 10 μM, 10 equiv reduced glutathione (100 μM), 50 mM sodium phosphate buffer pH 7.2; timepoints 0, 4, 8, 24 h; analytical C3 RP-HPLC
Excerpt: In certain physiological environments, disulfide bonds are prone to scrambling or reductive cleavage, thereby affecting peptide integrity.[67] Thus, we also evaluated the stability of the disulfide bonds of TFF3 in the presence of 10 equivalents of reduced glutathione (GSH) at pH 7 by time-course analytical RP-HPLC. […] While this was expected for the relatively buried disulfide bonds within the trefoil domain (TFF3_10-50), it highlights that also the disulfide bond outside of the trefoil domain is well protected.
Simulated gastric fluid (SGF) was prepared by dissolving 20 mg of NaCl and 8 mg of pepsin in 70 μL of concentrated HCl (32%), and the volume was diluted to 10 mL with Milli-Q water (pH 1.3).[76],[77] […] The samples were analyzed by analytical RP-HPLC (30 μL) and/or LC-MS (20 μL). The amount of peptide remaining was determined by measuring the peak area and expressing it as a % of the peak area at time 0. Peptide half-life (t1/2) was determined from the peptide degradation profiles using an exponential one-phase decay fit in Prism (version 7, GraphPad, La Jolla). […] The stability of the disulfide bonds was assessed through incubation of the peptides (10 μM) with 10 equiv of reduced glutathione (GSH; 100 μM) in sodium phosphate (50 mM) buffer at pH 7.2. […]

T1 sequence (P61073 whole entry): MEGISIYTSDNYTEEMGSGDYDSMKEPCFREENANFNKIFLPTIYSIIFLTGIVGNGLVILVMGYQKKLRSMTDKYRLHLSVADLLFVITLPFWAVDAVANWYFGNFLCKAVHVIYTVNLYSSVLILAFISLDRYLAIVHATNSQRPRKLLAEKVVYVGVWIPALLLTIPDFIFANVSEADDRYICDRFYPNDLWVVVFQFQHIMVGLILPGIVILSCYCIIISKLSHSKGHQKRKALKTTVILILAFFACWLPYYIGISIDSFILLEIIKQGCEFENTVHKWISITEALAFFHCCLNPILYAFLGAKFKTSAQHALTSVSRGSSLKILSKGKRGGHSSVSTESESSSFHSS

Substance: Ac-QCAVPAKDRVDCGYPHVTPKECNNRGCCFDSRIPGVPWCFK-NH2 (disulfide 2-28, 12-27, 22-39) [TFF3_10-50]
stability in SGF over 24 h (in words) [1]: stable
cleavage sites on incubation with trypsin (trypsin): cleavages at Lys^16, Arg^18, and Arg^41
half-life at 50 μM [2]: < 30 min

cleaved bond (porcine pancreatin): Leu6-Ser7, first_seen
Substance: EEYVGLSANQCAVPAKDRVDCGYPHVTPKECNNRGCCFDSRIPGVPWCFKPLQEAECTF
cleaved bond (pepsin): Leu6-Ser7, first_seen; also recorded: Glu54-Ala55, first_seen; also recorded: Ala55-Glu56, first_seen
cleaved bond (human saliva): Thr58-Phe59
fragment found (porcine pancreatin): S^7ANQCAVPAKDRVDCGYPHVTPKECNNRGCCFDSRIPGVPWCFKPLQEAE^56

effect on the EC50 of CXCL12 at CXCR4 (antagonism) (CXCR4): not affected
Substance: TFF3: 59-residue trefoil factor 3 peptide, three intrachain disulfide bonds, free Cys^57; chemically synthesized by native chemical ligation (EEYVGLSANQCAVPAKDRVDCGYPHVTPKECNNRGCCFDSRIPGVPWCFKPLQEAECTF; disulfide 11-37, 21-36, 31-48)
disulfide bond reduction or scrambling in presence of GSH [3]: No disulfide bond reduction or scrambling was observed
